Where two headings read alike, the source gives them in different places.
Key:
[1] = system: Pseudomonas anguilliseptica T-2; assay: MIC by broth serial dilution; format: cell-based
Experimental: (§1) The MIC (minimum inhibitory concentration) of a test compound was determined by the serial dilution method on various pathogenic microorganisms incubated under the following experimental conditions. The lowest concentration at which the visible growth of the organism was inhibited was considered as MIC. […]
(§2) the broth-dilution method bouillon, pH 7.2, except for Vibrio (3% NaCl-bouillon, pH 7.2), Pasteurella (2% NaCl-Brain Heart Infusion, pH 7.3 and Chondrococcus (TY medium, pH 7.3) 1 drop of a bacterial suspension per test tube (100 - 1000 minimal growing units in the medium) 25°C, except for Pseud. anguilliseptica (20°C)
(§3) 48 hours, except for Pseudo. anguilliseptica ([…])

Chondrococcus sp K-2 = assay: MIC by broth serial dilution; format: cell-based
Experimental: as §1, §2, §3

[2] = system: Aeromonas liquefaciens Y-62; assay: MIC by broth serial dilution; format: cell-based; conditions: Aeromonas hydrophila
Experimental: as §1, §2, §3

[3] = system: Aeromonas salmonicida Kusuda; assay: MIC by broth serial dilution; format: cell-based
Experimental: as §1, §2, §3

[4] = system: Pseudomonas anguilliseptica S-1; assay: MIC by broth serial dilution; format: cell-based
Experimental: as §1, §2, §3

Vibrio anguillarum K-3 = assay: MIC by broth serial dilution; format: cell-based
Experimental: as §1, §2, §3

Chondrococcus sp K-1 = assay: MIC by broth serial dilution; format: cell-based
Experimental: as §1, §2, §3

Vibrio anguillarum Km-30 = assay: MIC by broth serial dilution; format: cell-based
Experimental: as §1, §2, §3

Vibrio anguillarum A-8 = assay: MIC by broth serial dilution; format: cell-based
Experimental: as §1, §2, §3

[5] = system: Aeromonas salmonicida Hara-1; assay: MIC by broth serial dilution; format: cell-based
Experimental: as §1, §2, §3

[6] = system: Aeromonas salmonicida Kawazu; assay: MIC by broth serial dilution; format: cell-based
Experimental: as §1, §2, §3

[7] = system: Pasteurella piscicida K-1; assay: MIC by broth serial dilution; format: cell-based; conditions: Photobacterium damselae
Experimental: as §1, §2, §3

[8] = system: Pasteurella piscicida Al-3; assay: MIC by broth serial dilution; format: cell-based; conditions: Photobacterium damselae
Experimental: as §1, §2, §3

[9] = system: Aeromonas salmonicida Hara-2; assay: MIC by broth serial dilution; format: cell-based
Experimental: as §1, §2, §3

goldfish = assay: Oral toxicity in goldfish; format: in vivo; conditions: 10% in diet (PA 800, AT-1493 955, AT-1557 935, AT-1475 923 mg/kg)
Experimental: A diet containing 10% of each of the test compounds was given orally to groups each consisting of 5 goldfish each weighing 6 to 10 g, and observation was made for the following 7 days. The temperature of the water was maintained at 28°C.

[10] = system: Aeromonas liquefacieus Y-62; assay: Oral effect against Aeromonas infection in goldfish; format: in vivo
Experimental: Goldfish each weighing about 6 - 7 g were given a fish food containing each of the test compounds. After 30 minutes, the fish were infected intramuscularly with Aeromonas liquefacieus Y-62 (about 10^7 germs/fish) under ether anesthesia. […] In the same manner, the control group was given the same fish food without the test compound.

[11] = TY medium pH 7.3, 25°C, 48 hours, read-out: MIC
[12] = bouillon pH 7.2, 25°C, 48 hours, read-out: MIC
[13] = 0.03% in diet (PA 2.5, AT-1493 2.5, AT-1557 2.2 mg/kg), day 0: PA 10, others 5 fish
[14] = 0.1% in diet (PA 6.1, AT-1493 7.5, AT-1557 7.6, AT-1475 7.5 mg/kg), day 0: PA 10, others 5 fish
[15] = 1% in diet, 80.4 mg/kg, day 0: 5 fish
[16] = 3% in diet, 253.1 mg/kg, day 0: 5 fish

C=Cn1cc(C(=O)O)c(=O)c2ccc(N3CCN(CC)CC3)cc21 [AT-1557, 1,4-Dihydro-7-(4-ethyl-1-piperazinyl)-4-oxo-1-vinylquinoline-3-carboxylic acid]
4: Number of surviving fish after 2 days [10, 13] | Number of surviving fish after 3 days [10, 13] | Number of surviving fish after 4 days [10, 13] | Number of surviving fish after 5 days [10, 13]
1 µg/mL: MIC (Chondrococcus sp K-2; [11]) | MIC (Chondrococcus sp K-1; [11]) | MIC ([7]; K1, 2% NaCl-Brain Heart Infusion pH 7.3, 25°C, 48 hours, read-out: MIC) | MIC ([8]; AL3, 2% NaCl-Brain Heart Infusion pH 7.3, 25°C, 48 hours, read-out: MIC)
5: Number of the survival after 1 day from administration (goldfish; day 0: 5 fish) | Number of the survival after 2 days from administration (goldfish; day 0: 5 fish) | Number of the survival after 3 days from administration (goldfish; day 0: 5 fish) | Number of the survival after 4 days from administration (goldfish; day 0: 5 fish) | Number of the survival after 5 days from administration (goldfish; day 0: 5 fish) | Number of the survival after 6 days from administration (goldfish; day 0: 5 fish) | Number of the survival after 7 days from administration (goldfish; day 0: 5 fish) | Number of surviving fish after 1 day [10, 13] | Number of surviving fish after 1 day [10, 14] | Number of surviving fish after 2 days [10, 14] | Number of surviving fish after 3 days [10, 14] | Number of surviving fish after 4 days [10, 14] | Number of surviving fish after 5 days [10, 14]
3 µg/mL: MIC (Vibrio anguillarum A-8; A8, 3% NaCl-bouillon pH 7.2, 25°C, 48 hours, read-out: MIC)
80%: Percent survival ([10]; 0.03% in diet (PA 2.5, AT-1493 2.5, AT-1557 2.2 mg/kg), 5 days)
100%: Percent survival ([10]; 0.1% in diet (PA 6.1, AT-1493 7.5, AT-1557 7.6, AT-1475 7.5 mg/kg), 5 days)
0.3 µg/mL: MIC ([2]; Y62, bouillon pH 7.2, 25°C, 48 hours, read-out: MIC) | MIC [3, 12] | MIC ([5]; HARA1, bouillon pH 7.2, 25°C, 48 hours, read-out: MIC) | MIC ([9]; HARA2, bouillon pH 7.2, 25°C, 48 hours, read-out: MIC)
10 µg/mL: MIC (Vibrio anguillarum K-3; K3, 3% NaCl-bouillon pH 7.2, 25°C, 48 hours, read-out: MIC) | MIC (Vibrio anguillarum Km-30; KM30, 3% NaCl-bouillon pH 7.2, 25°C, 48 hours, read-out: MIC)
0.1 µg/mL: MIC ([1]; T2, bouillon pH 7.2, 20°C, 7 hours, read-out: MIC) | MIC ([4]; S1, bouillon pH 7.2, 20°C, 7 hours, read-out: MIC) | MIC [6, 12]
0%: Mortality (goldfish; 7 days)

CN(C)C1C(=O)C(C(N)=O)=C(O)C2(O)C(=O)C3=C(O)c4c(O)cccc4C(C)(O)C3CC12 (stereo not drawn) [Tetracycline, tetracycline, reference compound]
zero: Percent survival ([10]; diet concentration of as high as more than 0.1% as well as as low as 0.1%)
0: Number of surviving fish after 2 days [10, 15] | Number of surviving fish after 3 days [10, 15] | Number of surviving fish after 3 days [10, 16]
0%: Percent survival ([10]; 1% in diet, 80.4 mg/kg) | Percent survival ([10]; 3% in diet, 253.1 mg/kg)
3: Number of surviving fish after 1 day [10, 15]
0.3 µg/mL: MIC ([1]; T2, 7 h, pH 7.2) | MIC ([3]; 48 h, pH 7.2) | MIC ([4]; S1, 7 h, pH 7.2) | MIC (Vibrio anguillarum Km-30; KM30, 48 h, pH 7.2) | MIC ([5]; HARA1, 48 h, pH 7.2) | MIC ([7]; K1, 48 h, pH 7.3) | MIC ([8]; AL3, 48 h, pH 7.3)
1: Number of surviving fish after 2 days [10, 16]
5: Number of surviving fish after 1 day [10, 16]
0.1 µg/mL: MIC ([9]; HARA2, 48 h, pH 7.2)
1 µg/mL: MIC (Chondrococcus sp K-2; 48 h, pH 7.3) | MIC ([2]; Y62, 48 h, pH 7.2) | MIC (Vibrio anguillarum K-3; K3, 48 h, pH 7.2) | MIC (Chondrococcus sp K-1; 48 h, pH 7.3) | MIC (Vibrio anguillarum A-8; A8, 48 h, pH 7.2) | MIC ([6]; 48 h, pH 7.2)

From patent US3981999A, “Fish disease treatment” (Dainippon Pharmaceutical Co., Ltd., priority 1973, dated 1976)
